# Laboratory results taken from ChEMBL document CHEMBL1149662, “Design and synthesis of a library of tertiary amides: evaluation as mimetics of the melanocortins' active core” (Bioorg Med Chem, 2007).
# Columns and labels:
# [1] = target: Melanocyte-stimulating hormone receptor (Mus musculus, UniProt Q01727); assay: Displacement of [125I]NDP-MSH from MC1 receptor in mouse B16 cells; type: cell-based
# Melanocortin receptor 3 = Melanocortin receptor 3 (Homo sapiens, UniProt P41968); assay: Displacement of [125I]NDP-MSH from human recombinant MC3 receptor expressed in Sf9 cells
# Melanocortin receptor 4 = Melanocortin receptor 4 (Homo sapiens, UniProt P32245); assay: Displacement of [125I]NDP-MSH from human recombinant MC4 receptor expressed in Sf9 cells
# Melanocortin receptor 5 = Melanocortin receptor 5 (Homo sapiens, UniProt P33032); assay: Displacement of [125I]NDP-MSH from human recombinant MC5 receptor expressed in Sf9 cells
# Sequence of Melanocortin receptor 5 (P33032 whole entry): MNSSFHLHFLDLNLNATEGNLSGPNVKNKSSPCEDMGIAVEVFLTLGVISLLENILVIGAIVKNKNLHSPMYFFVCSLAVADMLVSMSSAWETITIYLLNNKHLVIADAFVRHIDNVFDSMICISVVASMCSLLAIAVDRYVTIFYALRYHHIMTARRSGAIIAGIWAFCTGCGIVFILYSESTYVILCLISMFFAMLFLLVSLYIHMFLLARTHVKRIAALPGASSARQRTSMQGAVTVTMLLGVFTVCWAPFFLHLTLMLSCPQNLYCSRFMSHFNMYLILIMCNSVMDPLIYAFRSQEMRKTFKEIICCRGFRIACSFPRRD
# Sequence of Melanocortin receptor 4 (P32245 whole entry): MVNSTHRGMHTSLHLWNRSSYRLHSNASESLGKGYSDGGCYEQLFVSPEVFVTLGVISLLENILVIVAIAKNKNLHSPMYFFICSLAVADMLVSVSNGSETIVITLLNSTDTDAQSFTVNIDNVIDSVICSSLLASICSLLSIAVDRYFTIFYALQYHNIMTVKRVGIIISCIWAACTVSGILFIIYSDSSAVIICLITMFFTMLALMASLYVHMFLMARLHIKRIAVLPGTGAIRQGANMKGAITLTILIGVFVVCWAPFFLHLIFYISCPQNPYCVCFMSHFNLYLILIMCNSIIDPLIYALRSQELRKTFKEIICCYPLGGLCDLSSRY
# Sequence of Melanocyte-stimulating hormone receptor (Q01727 whole entry): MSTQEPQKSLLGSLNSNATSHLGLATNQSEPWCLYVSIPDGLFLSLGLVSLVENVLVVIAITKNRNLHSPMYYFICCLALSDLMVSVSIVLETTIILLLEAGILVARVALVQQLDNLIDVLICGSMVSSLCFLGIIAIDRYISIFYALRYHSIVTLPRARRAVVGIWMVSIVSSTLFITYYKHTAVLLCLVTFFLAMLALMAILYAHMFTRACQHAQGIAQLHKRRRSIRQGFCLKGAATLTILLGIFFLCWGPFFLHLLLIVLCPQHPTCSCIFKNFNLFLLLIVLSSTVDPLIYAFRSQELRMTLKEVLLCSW
# Sequence of Melanocortin receptor 3 (P41968 whole entry): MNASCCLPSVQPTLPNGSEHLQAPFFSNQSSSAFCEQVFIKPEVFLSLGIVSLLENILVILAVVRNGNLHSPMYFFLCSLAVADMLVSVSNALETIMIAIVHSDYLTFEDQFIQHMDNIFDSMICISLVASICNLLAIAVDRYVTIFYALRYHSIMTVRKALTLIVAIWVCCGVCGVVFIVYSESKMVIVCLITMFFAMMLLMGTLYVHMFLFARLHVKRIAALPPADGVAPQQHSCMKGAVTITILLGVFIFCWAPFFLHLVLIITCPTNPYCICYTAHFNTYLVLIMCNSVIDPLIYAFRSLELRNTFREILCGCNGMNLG
Structure (SMILES),Ki [1],Ki (Melanocortin receptor 3),Ki (Melanocortin receptor 4),Ki (Melanocortin receptor 5)
COc1cc(O)ccc1/C=C/CN(C(=O)CCCc1c[nH]c2ccccc12)C1CCC(CC2CCC(N)CC2)CC1 (stereo in doubt; form 2),3.3 µM,51 µM,8 µM,11 µM
NCCCCN(Cc1ccccc1)C(=O)CCCc1c[nH]c2ccccc12,12 µM,38 µM,17 µM,20 µM
Cc1ccc(CN(C(=O)CCCc2c[nH]c3ccccc23)C2CCC(CC3CCC(N)CC3)CC2)cc1 (stereo not drawn),1.3 µM,220 µM,2.1 µM,10 µM
NC1CCC(CC2CCC(N(C/C(Cl)=C/c3ccccc3)C(=O)COc3ccc4ccccc4c3)CC2)CC1 (stereo in doubt; 10b-36-14),1.5 µM,23 µM,3.7 µM,5.5 µM
CC(c1csc2ccccc12)N(CCCN)C(=O)CCCc1c[nH]c2ccccc12 (stereo not drawn),7.4 µM,104 µM,9.8 µM,55 µM
NCCCCCN(Cc1ccccc1)C(=O)CCCc1c[nH]c2ccccc12,3.2 µM,15 µM,6.4 µM,4.6 µM
NCCCN(C/C=C/c1ccccc1)C(=O)C(=O)c1c[nH]c2ccccc12,1.6 µM,17 µM,5 µM,4.9 µM
NCCCCCN(Cc1ccccc1)C(=O)[C@H](N)Cc1ccc([N+](=O)[O-])cc1,37 µM,162 µM,96 µM,102 µM
NCc1ccc(CN(Cc2ccc3ccccc3c2)C(=O)CCCc2c[nH]c3ccccc23)cc1,4 µM,40 µM,11 µM,17 µM
NCCCCCN(Cc1ccc2ccccc2c1)C(=O)Cc1c[nH]c2ccccc12,1.5 µM,50 µM,13 µM,5.2 µM
CC(c1ccc2ccccc2c1)N(CCN)C(=O)Cc1c[nH]c2ccccc12 (stereo not drawn),4.4 µM,11 µM,11 µM,19 µM
N=C(N)NC1CCC(CC2CCC(N(Cc3ccccc3)C(=O)CCCc3c[nH]c4ccccc34)CC2)CC1 (stereo not drawn),1.5 µM,19 µM,3.4 µM,2.6 µM
NC1CCC(CC2CCC(N(Cc3ccccc3Cl)C(=O)CCCc3c(Cc4ccc(O)cc4)[nH]c4ccccc34)CC2)CC1 (stereo not drawn),6.6 µM,26 µM,14 µM,97 µM
NC1CCC(CC2CCC(N(C(=O)CCCc3c[nH]c4ccccc34)C3CCc4ccccc4C3)CC2)CC1 (stereo not drawn),4.5 µM,278 µM,12 µM,44 µM
NCCN(C(=O)[C@H](N)Cc1ccc(Cl)cc1)C1CCC2(CCCCC2)CC1,3.7 µM,1.7 µM,2.4 µM,3.2 µM
N[C@@H]1CCCC[C@H]1N(C/C=C/c1ccccc1)C(=O)CCCc1c[nH]c2ccccc12,12 µM,62 µM,116 µM,555 µM
NC1CCC(CC2CCC(N(C/C(Cl)=C/c3ccccc3)C(=O)CCCc3c[nH]c4ccccc34)CC2)CC1 (stereo in doubt; form 1),0.51 µM,7.1 µM,4.1 µM,47 µM
CC(C)N(CCCCN)C(=O)c1c(Cc2ccc(O)cc2)[nH]c2ccccc12,90 µM,106 µM,165 µM,353 µM

Structure (SMILES),Ki [1],Ki (Melanocortin receptor 3),Ki (Melanocortin receptor 4),Ki (Melanocortin receptor 5)
NCCCCCN(Cc1ccccc1)C(=O)[C@H](N)Cc1ccc(-c2ccccc2)cc1,3.9 µM,18 µM,14 µM,20 µM
COc1ccccc1/C=C/CN(C(=O)CCCc1c[nH]c2ccccc12)C1CCC(CC2CCC(N)CC2)CC1 (stereo in doubt; form 2),1.6 µM,31 µM,4.1 µM,5 µM
N=C(N)NCCCCN(Cc1ccc2ccccc2c1)C(=O)CCCc1c[nH]c2ccccc12,3.2 µM,134 µM,96 µM,11 µM
NCCCN1CCN(CCCN(C/C(Cl)=C/c2ccccc2)C(=O)CCCc2c[nH]c3ccccc23)CC1,4.6 µM,78 µM,9.2 µM,6.6 µM
N=C(N)NCCN(Cc1ccc2ccccc2c1)C(=O)Cc1c[nH]c2ccccc12,19 µM,57 µM,179 µM,15 µM
COc1ccccc1/C=C/CN(C(=O)CCCc1c[nH]c2ccccc12)C1CCC(CC2CCC(N)CC2)CC1 (stereo in doubt; form 1),1.5 µM,17 µM,4.9 µM,7.5 µM
NC1CCC(CC2CCC(N(Cc3ccccc3F)C(=O)CCCc3c[nH]c4ccccc34)CC2)CC1 (stereo not drawn),2.4 µM,20 µM,3.7 µM,7.2 µM
NCCCCN(Cc1ccccc1)C(=O)CCCc1c(Cc2ccc(O)cc2)[nH]c2ccccc12,7.7 µM,16 µM,6.2 µM,4.6 µM
NC1CCC(CC2CCC(N(Cc3ccccc3Cl)C(=O)CCCc3c[nH]c4ccccc34)CC2)CC1 (stereo not drawn),3.2 µM,22 µM,2.8 µM,5.2 µM
C=C(Br)CN(C(=O)CCCc1c[nH]c2ccccc12)C1CCC(CC2CCC(N)CC2)CC1 (stereo in doubt; form 1),1.2 µM,19 µM,3.2 µM,4.9 µM
NCCCCN(C/C=C/c1ccccc1)C(=O)CCc1c[nH]c2ccccc12,8.3 µM,67 µM,18 µM,10 µM
NC1CCC(CC2CCC(N(Cc3c(F)cccc3F)C(=O)CCCc3c[nH]c4ccccc34)CC2)CC1 (stereo not drawn),1.8 µM,52 µM,3 µM,83 µM
CC1CC(CC2CCC(N(Cc3ccccc3)C(=O)CCCc3c[nH]c4ccccc34)C(C)C2)CCC1N (stereo in doubt; form 2),0.87 µM,22 µM,3.2 µM,4.8 µM
CSc1ccc(CN(C(=O)CCCc2c(Cc3ccc(O)cc3)[nH]c3ccccc23)C2CCC(CC3CCC(N)CC3)CC2)cc1 (stereo not drawn),17 µM,201 µM,4.5 µM,8.9 µM
N#Cc1ccc(CN(C(=O)CCCc2c(Cc3ccc(O)cc3)[nH]c3ccccc23)C2CCC(CC3CCC(N)CC3)CC2)cc1 (stereo not drawn),1.4 µM,25 µM,2.4 µM,21 µM
COC(=O)c1ccc(CN(C(=O)CCCc2c(Cc3ccc(O)cc3)[nH]c3ccccc23)C2CCC(CC3CCC(N)CC3)CC2)cc1 (stereo not drawn),4.3 µM,46 µM,2.7 µM,6.7 µM
NC1CCC(CC2CCC(N(Cc3ccncc3)C(=O)CCCc3c[nH]c4ccccc34)CC2)CC1 (stereo in doubt; form 2),6.3 µM,172 µM,5.6 µM,96 µM

# More lines, now with the values ahead:
Ki [1],Ki (Melanocortin receptor 3),Ki (Melanocortin receptor 4),Ki (Melanocortin receptor 5),Structure (SMILES)
1 µM,21 µM,3.3 µM,7.8 µM,C=C(Br)CN(C(=O)CCCc1c[nH]c2ccccc12)C1CCC(CC2CCC(N)CC2)CC1 (stereo in doubt; form 3)
2.7 µM,13 µM,3.4 µM,27 µM,N=C(N)NC1CCC(CC2CCC(N(C/C(Cl)=C/c3ccccc3)C(=O)CCCc3c[nH]c4ccccc34)CC2)CC1 (stereo in doubt; form 2)
106 µM,112 µM,222 µM,279 µM,CC(C)N(CCCCN)C(=O)c1c[nH]c2ccccc12
4.2 µM,12 µM,4.8 µM,12 µM,NC1CCC(CC2CCC(N(C/C(Cl)=C/c3ccccc3)C(=O)c3cc4cc(OCc5ccccc5)ccc4[nH]3)CC2)CC1 (stereo not drawn)
6.4 µM,52 µM,16 µM,22 µM,NCCCN1CCN(CCCN(Cc2ccccc2)C(=O)CCCc2c[nH]c3ccccc23)CC1
12 µM,47 µM,77 µM,7.9 µM,NCCCCCN(CCCc1ccccc1)C(=O)Cc1c[nH]c2ccccc12
2 µM,47 µM,5 µM,5.1 µM,NCCCCCN(Cc1ccccc1)C(=O)CCCc1c(Cc2ccc(O)cc2)[nH]c2ccccc12
17 µM,137 µM,182 µM,16 µM,N=C(N)NCCCCN(Cc1ccc2ccccc2c1)C(=O)Cc1c[nH]c2ccccc12
14 µM,58 µM,62 µM,7.3 µM,NCCCCCN(Cc1ccc2ccccc2c1)C(=O)CCc1c[nH]c2ccccc12
21 µM,65 µM,81 µM,11 µM,NCCCN(C/C=C/c1ccccc1)C(=O)CCc1c[nH]c2ccccc12
4.3 µM,50 µM,8.4 µM,40 µM,N[C@H]1CC[C@H](N(Cc2ccccc2)C(=O)CCCc2c[nH]c3ccccc23)CC1
1.9 µM,7.5 µM,6 µM,6.1 µM,NC(N)=NCCCN(Cc1ccc2ccccc2c1)C(=O)CCCc1c[nH]c2ccccc12
3.7 µM,26 µM,19 µM,23 µM,NCCCN(Cc1ccc2ccccc2c1)C(=O)CCCc1c[nH]c2ccccc12
2.9 µM,16 µM,2.1 µM,9.5 µM,CCOc1cc(CN(C(=O)CCCc2c[nH]c3ccccc23)C2CCC(CC3CCC(N)CC3)CC2)ccc1OC (stereo not drawn)
3.1 µM,45 µM,6.8 µM,8.4 µM,N[C@H]1CC[C@H](C[C@H]2CC[C@H](N(C/C(Cl)=C/c3ccccc3)C(=O)CCCc3c[nH]c4ccccc34)CC2)CC1
0.77 µM,5.4 µM,2.3 µM,28 µM,NCCCCCN(C/C(Cl)=C\c1ccccc1)C(=O)CCCc1c[nH]c2ccccc12
4.8 µM,131 µM,74 µM,23 µM,NCCCN(C(=O)c1c[nH]c2ccccc12)C1CCc2ccccc2C1 (stereo not drawn)
